Measurements as given in patent US11846640B2, “Identification of anticoagulants in a sample” (DSM IP Assets B.V., priority 2013, dated 2023).

Experiments:
Assay type in all cases: biochemical, human
normal plasma pool (NPP) = test: PiCT Method 3 clotting time on ACL TOP 500; settings: Table 8B (argatroban), PiCT Method 3, NPP spiked, mean n = 4
From the text: The 4 methods (see above) are in more detail described in the Examples. Specific pipetting schemes were designed using NPP spiked with incremental amounts of anticoagulants in order to achieve high reproducibility of the test system, which is required for drug identification including use in a POC system. […] […]-50/I-180/50-S). […] […]-65/I-180/35-S on the ACL TOP® 500 or […]-65/I-180/40-S on the STA Compact® or […]-65/[…]-40 on the BCS® XP. […] […]-70/I-180/40-S on the ACL TOP® 500 or STA Compact®, or […]-60/I-180/45-S on the BCS® XP.

plasma samples [1] = test: PT (HemosIL PT recombiplastin) clotting time; settings: for Clotting time with PT: Table 6, spiked plasma, mean
Experimental: (§1) In order to address the above question, i.e. to determine the nature of an anticoagulant in a sample, a combination of several methods has to be performed, including PiCT® Method 1, PiCT® Method 4, aPTT (HemosIL™ aPTT SP), PT (HemosIL™ PT recombiplastin), and sometimes even a modified PiCT® Method 1 wherein polybrene has been added. In order to simulate this, plasma samples spiked with different levels of anticoagulants were analyzed using the ACL TOP® 500 analyzer.

plasma samples [2] = test: PiCT Method 1 with polybrene added, clotting time; settings: Table 6, spiked plasma, mean
From the text: By the addition of polybrene a distinction can be done, which of the anticoagulants is really present in the sample: if after addition of polybrene the measured clotting times are again back to RR when using the PiCT® Method 1, the sample comprises heparins, such as e.g. UFH or LMWH. Alternatively, if the result is not going back to RR, the sample comprises low concentrations of dabigatran or hirudin. […] The particular clotting times measured for the different anticoagulants are shown in Table 6, which is an example of results obtained in spiked plasma samples.
as §1, with “analyzer. For each drug, a specific pattern was obtained, i.e. clotting times within the RR and clotting times above the RR, depending on the used testing method, which is unique at least for the class of anticoagulant or even for a specific anticoagulant.” for “analyzer.”

| Structure (SMILES) | Clotting time (normal plasma pool (NPP); 0.2 μg/ml) [s] | Clotting time (normal plasma pool (NPP); 0.4 μg/ml) [s] | Clotting time (normal plasma pool (NPP); 0.6 μg/ml) [s] | Clotting time (normal plasma pool (NPP); 0.8 μg/ml) [s] | Clotting time (normal plasma pool (NPP); 1.0 μg/ml) [s] | Clotting time (normal plasma pool (NPP); 1.2 μg/ml) [s] | Clotting time (normal plasma pool (NPP); 1.4 μg/ml) [s] | Clotting time (normal plasma pool (NPP); 1.6 μg/ml) [s] | Clotting time (normal plasma pool (NPP); 1.8 μg/ml) [s] | Clotting time (normal plasma pool (NPP); 2.0 μg/ml) [s] | Clotting time with PT (plasma samples [1]; 0.3 μg) [s] | Clotting time with PT (plasma samples [1]; 1.5 μg) [s] | Clotting time with PiCT ® Method 1 + polybrene (plasma samples [2]; 0.3 μg) [s] | Clotting time with PiCT ® Method 1 + polybrene (plasma samples [2]; 1.5 μg) [s] | Clotting time with PT (plasma samples [1]; 50 ng) [s] | Clotting time with PT (plasma samples [1]; 200 ng) [s] | PT clotting time relative to reference range (RR) (plasma samples [1]; only at higher doses, in the range of 200 ng or more) |
| --- | --- | --- | --- | --- | --- | --- | --- | --- | --- | --- | --- | --- | --- | --- | --- | --- | --- |
| CC1CNc2c(cccc2S(=O)(=O)N[C@@H](CCCNC(=N)N)C(=O)N2CC[C@@H](C)C[C@@H]2C(=O)O)C1 (some centres unmarked) [argatroban] | 113 | 145 | 162 | 179 | 198 | 204 | 210 | 232 | 234 | 240 | 15.0 | 31.2 | 85.6 | 126.4 | – | – | – |
| O=C(NC[C@H]1CN(c2ccc(N3CCOCC3=O)cc2)C(=O)O1)c1ccc(Cl)s1 [rivaroxaban] | – | – | – | – | – | – | – | – | – | – | – | – | – | – | 12.2 | 20.3 | above the RR |
